How the values were obtained:
PknD (GST-PknD) = PknD (GST-PknD) (Mycobacterium tuberculosis, UniProt P9WI79)
PknE = PknE (Mycobacterium tuberculosis, UniProt P9WI77)
PknA = PknA (Mycobacterium tuberculosis, UniProt P9WI83)
PknH = PknH (Mycobacterium tuberculosis, UniProt P9WI71)
PknJ = PknJ (Mycobacterium tuberculosis, UniProt P9WI67)
PknG = PknG (Mycobacterium tuberculosis, UniProt P9WI73)
Sequence of PknG (P9WI73 whole entry): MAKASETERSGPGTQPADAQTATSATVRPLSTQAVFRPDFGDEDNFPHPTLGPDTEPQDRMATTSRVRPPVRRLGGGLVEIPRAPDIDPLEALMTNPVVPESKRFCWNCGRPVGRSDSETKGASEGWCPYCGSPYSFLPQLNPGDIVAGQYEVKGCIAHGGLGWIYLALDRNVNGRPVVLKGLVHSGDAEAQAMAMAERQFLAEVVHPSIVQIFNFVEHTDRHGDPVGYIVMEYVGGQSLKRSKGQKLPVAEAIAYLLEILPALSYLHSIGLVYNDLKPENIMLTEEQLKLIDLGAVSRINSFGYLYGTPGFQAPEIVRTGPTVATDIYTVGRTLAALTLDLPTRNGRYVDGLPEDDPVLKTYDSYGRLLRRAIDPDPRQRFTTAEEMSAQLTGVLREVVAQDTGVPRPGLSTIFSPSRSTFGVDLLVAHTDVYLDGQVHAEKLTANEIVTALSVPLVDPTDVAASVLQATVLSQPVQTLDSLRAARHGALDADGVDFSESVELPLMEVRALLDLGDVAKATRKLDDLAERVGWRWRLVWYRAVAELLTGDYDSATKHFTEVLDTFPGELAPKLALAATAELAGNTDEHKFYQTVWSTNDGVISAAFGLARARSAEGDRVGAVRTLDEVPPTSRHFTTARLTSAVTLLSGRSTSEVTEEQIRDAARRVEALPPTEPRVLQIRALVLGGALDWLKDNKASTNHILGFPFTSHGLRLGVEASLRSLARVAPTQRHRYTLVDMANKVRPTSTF

Sequence of PknH (P9WI71 whole entry): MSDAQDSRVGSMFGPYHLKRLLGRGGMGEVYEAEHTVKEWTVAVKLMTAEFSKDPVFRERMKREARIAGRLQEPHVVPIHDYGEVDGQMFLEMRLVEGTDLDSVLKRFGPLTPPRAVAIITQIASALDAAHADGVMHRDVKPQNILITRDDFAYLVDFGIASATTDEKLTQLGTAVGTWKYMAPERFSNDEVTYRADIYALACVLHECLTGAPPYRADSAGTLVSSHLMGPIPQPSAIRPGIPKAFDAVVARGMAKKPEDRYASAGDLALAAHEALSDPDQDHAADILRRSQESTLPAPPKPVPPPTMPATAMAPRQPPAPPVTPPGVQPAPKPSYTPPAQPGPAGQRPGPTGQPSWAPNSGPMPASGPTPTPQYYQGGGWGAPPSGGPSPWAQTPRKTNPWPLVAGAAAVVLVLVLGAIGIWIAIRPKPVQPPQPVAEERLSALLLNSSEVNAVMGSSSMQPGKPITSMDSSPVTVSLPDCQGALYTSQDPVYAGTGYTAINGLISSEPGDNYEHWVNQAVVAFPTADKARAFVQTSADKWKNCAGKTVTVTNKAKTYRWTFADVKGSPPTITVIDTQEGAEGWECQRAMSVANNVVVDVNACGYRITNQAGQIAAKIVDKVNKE
Sequence of PknJ (P9WI67 whole entry): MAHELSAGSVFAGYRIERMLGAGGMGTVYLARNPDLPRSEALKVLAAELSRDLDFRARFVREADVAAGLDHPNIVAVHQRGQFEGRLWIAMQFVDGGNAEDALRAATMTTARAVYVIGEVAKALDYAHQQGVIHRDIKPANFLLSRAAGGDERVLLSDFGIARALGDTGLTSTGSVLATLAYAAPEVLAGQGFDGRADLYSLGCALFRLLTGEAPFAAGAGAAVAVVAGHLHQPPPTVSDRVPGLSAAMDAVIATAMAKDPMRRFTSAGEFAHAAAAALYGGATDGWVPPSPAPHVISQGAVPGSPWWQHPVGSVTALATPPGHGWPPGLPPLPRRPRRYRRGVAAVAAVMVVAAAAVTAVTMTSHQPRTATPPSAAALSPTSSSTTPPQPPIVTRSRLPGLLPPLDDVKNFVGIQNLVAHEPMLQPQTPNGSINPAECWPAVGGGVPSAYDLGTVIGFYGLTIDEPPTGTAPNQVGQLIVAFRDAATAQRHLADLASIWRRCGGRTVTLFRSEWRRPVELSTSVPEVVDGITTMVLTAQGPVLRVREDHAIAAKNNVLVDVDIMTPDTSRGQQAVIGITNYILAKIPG
Sequence of PknD (GST-PknD) (P9WI79 whole entry): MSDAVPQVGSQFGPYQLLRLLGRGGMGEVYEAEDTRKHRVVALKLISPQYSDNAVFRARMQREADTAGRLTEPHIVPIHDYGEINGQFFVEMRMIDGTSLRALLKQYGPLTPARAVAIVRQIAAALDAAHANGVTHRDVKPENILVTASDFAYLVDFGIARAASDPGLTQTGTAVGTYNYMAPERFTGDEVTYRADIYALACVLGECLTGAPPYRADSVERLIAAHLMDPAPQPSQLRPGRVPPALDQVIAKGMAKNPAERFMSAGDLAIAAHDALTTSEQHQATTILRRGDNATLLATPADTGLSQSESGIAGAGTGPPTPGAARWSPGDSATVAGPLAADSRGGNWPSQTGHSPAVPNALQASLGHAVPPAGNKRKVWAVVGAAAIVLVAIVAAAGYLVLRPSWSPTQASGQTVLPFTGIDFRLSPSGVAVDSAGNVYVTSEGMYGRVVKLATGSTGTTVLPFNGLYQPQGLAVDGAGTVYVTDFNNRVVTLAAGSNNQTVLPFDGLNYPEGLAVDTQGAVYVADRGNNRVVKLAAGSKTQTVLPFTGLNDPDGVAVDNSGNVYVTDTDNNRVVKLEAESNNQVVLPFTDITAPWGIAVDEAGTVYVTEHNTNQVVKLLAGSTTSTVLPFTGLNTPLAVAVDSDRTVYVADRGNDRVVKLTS
Sequence of PknA (P9WI83 whole entry): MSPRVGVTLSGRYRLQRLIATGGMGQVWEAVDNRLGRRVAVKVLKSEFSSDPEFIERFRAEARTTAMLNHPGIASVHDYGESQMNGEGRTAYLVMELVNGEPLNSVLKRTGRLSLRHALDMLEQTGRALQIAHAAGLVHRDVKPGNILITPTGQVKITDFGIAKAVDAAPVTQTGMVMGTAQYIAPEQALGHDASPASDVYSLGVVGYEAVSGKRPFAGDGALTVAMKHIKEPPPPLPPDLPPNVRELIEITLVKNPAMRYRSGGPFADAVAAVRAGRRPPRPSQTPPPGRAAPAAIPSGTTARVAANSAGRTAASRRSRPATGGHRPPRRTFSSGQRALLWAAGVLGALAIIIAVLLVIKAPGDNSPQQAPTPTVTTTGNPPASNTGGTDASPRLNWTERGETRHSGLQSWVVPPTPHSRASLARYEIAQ
Sequence of PknE (P9WI77 whole entry): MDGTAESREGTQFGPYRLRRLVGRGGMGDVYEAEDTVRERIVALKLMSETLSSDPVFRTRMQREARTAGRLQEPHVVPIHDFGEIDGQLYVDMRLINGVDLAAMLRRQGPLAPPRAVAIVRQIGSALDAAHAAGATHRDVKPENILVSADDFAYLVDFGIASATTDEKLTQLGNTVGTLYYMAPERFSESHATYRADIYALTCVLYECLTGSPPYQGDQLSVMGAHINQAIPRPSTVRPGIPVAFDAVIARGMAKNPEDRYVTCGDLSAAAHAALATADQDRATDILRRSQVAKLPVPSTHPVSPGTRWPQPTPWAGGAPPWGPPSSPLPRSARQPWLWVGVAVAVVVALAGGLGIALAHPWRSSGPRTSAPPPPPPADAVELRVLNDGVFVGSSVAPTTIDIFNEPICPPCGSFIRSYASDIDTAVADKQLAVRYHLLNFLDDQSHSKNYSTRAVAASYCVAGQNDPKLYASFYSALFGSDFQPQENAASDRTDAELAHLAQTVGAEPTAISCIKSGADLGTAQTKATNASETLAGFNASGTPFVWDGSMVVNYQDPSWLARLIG

## Nc1ncnc2c1ncn2[C@@H]1O[C@H](COP(=O)(O)OP(=O)(O)OP(=O)(O)O)[C@@H](O)[C@H]1O [[γ-^33P]ATP]
PknD (GST-PknD)
  in vitro radiolabelled phosphorylation, SDS-PAGE autoradiography: the MDH was phosphorylated by PknD, but could not be autophosphorylated
PknE
  in vitro radiolabelled phosphorylation, SDS-PAGE autoradiography: PknA, PknD, PknE, PknG, PknH and PknJ phosphorylated the (His)6-MDH
PknA
  in vitro radiolabelled phosphorylation, SDS-PAGE autoradiography: PknA, PknD, PknE, PknG, PknH and PknJ phosphorylated the (His)6-MDH
PknH
  in vitro radiolabelled phosphorylation, SDS-PAGE autoradiography: PknA, PknD, PknE, PknG, PknH and PknJ phosphorylated the (His)6-MDH
PknJ
  in vitro radiolabelled phosphorylation, SDS-PAGE autoradiography: PknA, PknD, PknE, PknG, PknH and PknJ phosphorylated the (His)6-MDH
PknG
  in vitro radiolabelled phosphorylation, SDS-PAGE autoradiography: PknA, PknD, PknE, PknG, PknH and PknJ phosphorylated the (His)6-MDH
